From patent publication US20240300958A1, “COMPOUNDS AND THE USES AND PHARMACEUTICAL COMPOSITIONS THEREOF” (BEIJING YOUZHUJU NETWORK TECHNOLOGY CO. LTD., priority 2023, published 2024)
pIC50: −log10 of the molar value. Where two headings read alike, the source gives them in different places.

Legend:
DDR1 = DDR1 (Homo sapiens (Human), UniProt Q08345); assay: DDR1 kinase inhibition assay (FAM-labeled peptide), IC50; format: biochemical
Procedure: 1× kinase base buffer (50 mM HEPES, pH 7.5, 0.0015% Brij-35) and a stop buffer (100 mM HEPES, pH 7.5, 0.015% Brij-35, 0.2% Coating Reagent #3, 50 mM EDTA) were prepared for testing kinases.
The compounds were diluted with 100% DMSO to 100 times the highest final inhibitor concentration required in the reaction. 100 μl of dilution of the compound was transferred to wells of a 96-well plate. For example, 100000 nM solution of the compound in DMSO was prepared in this step in case that an inhibitor concentration of 1000 nM is required. 100 μl of 100% DMSO was added to two empty wells of a 96-well plate for no compound control and no enzyme control. This plate was labeled as the source plate. A new 96-well plate with 5 μl of compound transferred from the source plate is used as an intermediate plate. 95 μl of 1× kinase buffer was added to each well of the intermediate plate. The compounds in the intermediate plate was mixed on a shaker for 10 minutes.
5 μl of sample in each well from the 96-well intermediate plate was transferred to the 384-well plate in duplicate. For example, well A1 of the 96-well plate was transferred to wells A2 and A1 of the 384-well plate, and well A2 of the 96-well plate was transferred to wells A3 and A4 of the 384-well plate, and so forth. 2.5× enzyme solution was prepared: 1× kinase basal buffer with added kinase. 2.5× peptide solution was prepared: 1× kinase basal buffer with added FAM-labeled peptide and ATP. To an assay plate already contained 5 μl of 10% dimethyl sulfoxide compound, 2.5× enzyme solution was transferred, and each well of the 384-well assay plate was added 10 μl of 2.5× enzyme solution. After incubation at room temperature for 10 minutes, 2.5× peptide solution was transferred to the assay plate. Each well of the 384-well assay plate was added 10 μl of 2.5× peptide solution. Kinase reaction and termination: incubation at 28° C. for a specified period followed by the addition of 25 μl stop buffer to stop the reaction. The data was read and collected.

DCAMKL2 = DCAMKL2 (Homo sapiens (Human), UniProt Q8N568); assay: Kinase inhibition profile (HTRF / ADP Glo kinase assay); format: biochemical
Outline: (§1)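 HTRF or ADP-Glo format; 10 min enzyme–compound preincubation, then 60 min substrate/ATP reaction, all at 25 °C. Percent inhibition derived from DMSO and positive-control wells.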

DYRK1B = DYRK1B (Homo sapiens (Human), UniProt Q9Y463); assay: as above; format: biochemical
Outline: as §1

HIPK1 = HIPK1 (Homo sapiens (Human), UniProt Q86Z02); assay: as above; format: biochemical
Outline: as §1

ITK = ITK (Homo sapiens (Human), UniProt Q08881); assay: as above; format: biochemical
Outline: as §1

PIM1 = PIM1 (Homo sapiens (Human), UniProt P11309); assay: as above; format: biochemical
Outline: as §1

[1] = tested on: α-smooth muscle actin (α-SMA) expression; assay: Inhibition of DDR1-mediated lung fibrosis (α-SMA expression) in hTGFβ1-stimulated MRC-5 cells (western blot); format: cell-based, Human; conditions: for Ratio of α-SMA to GAPDH / α-SMA signal: hTGFβ1 2.5 ng/ml
Procedure: Human embryonic lung fibroblast MRC-5 cells were inoculated in a 6-well plate and incubated overnight at 37° C. and 5% CO2. 2 μL of compound C1 (gradient concentration in DMSO solution) was added to a cell plate with prepared cells, and was incubated overnight at 37° C. and 5% CO2. hTGFβ1 (which can stimulate DDR1-mediated lung fibrosis manifested by up-regulation of α-smooth muscle actin (α-SMA) expression) was added to the cell plate and incubated at 37° C. and 5% CO2 for 2 hours. Harvest of cell lysates: culture medium was aspirated as much as possible at the end of the culture until the wells were almost dry. 200 μL of ice-cold lysis buffer was added. Lysate was collected into a 1.5 mL eppendorf tube through scraping. Brief vortex was followed by spinning at 12000 rpm for 15 minutes in a refrigerated centrifuge. 5× protein electrophoresis loading buffer was added and then the sample was boiled. The sample supernatant was added to a SDS-PAGE gel, followed by electrophoresis, electrotransfer, blocking, primary antibody (anti-α-SMA antibody and anti-GAPDH antibody) incubation, washing, secondary antibody incubation, washing, and fluorescence development.

[2] = 1 uM Compound C1, read-out: % Inhibition (First measurement)
[3] = 1 uM Compound C1, read-out: % Inhibition (Second measurement)
[4] = 1 uM Compound C1, read-out: Average inhibition (%)

Sequence of HIPK1 (Q86Z02 whole entry, species assumed): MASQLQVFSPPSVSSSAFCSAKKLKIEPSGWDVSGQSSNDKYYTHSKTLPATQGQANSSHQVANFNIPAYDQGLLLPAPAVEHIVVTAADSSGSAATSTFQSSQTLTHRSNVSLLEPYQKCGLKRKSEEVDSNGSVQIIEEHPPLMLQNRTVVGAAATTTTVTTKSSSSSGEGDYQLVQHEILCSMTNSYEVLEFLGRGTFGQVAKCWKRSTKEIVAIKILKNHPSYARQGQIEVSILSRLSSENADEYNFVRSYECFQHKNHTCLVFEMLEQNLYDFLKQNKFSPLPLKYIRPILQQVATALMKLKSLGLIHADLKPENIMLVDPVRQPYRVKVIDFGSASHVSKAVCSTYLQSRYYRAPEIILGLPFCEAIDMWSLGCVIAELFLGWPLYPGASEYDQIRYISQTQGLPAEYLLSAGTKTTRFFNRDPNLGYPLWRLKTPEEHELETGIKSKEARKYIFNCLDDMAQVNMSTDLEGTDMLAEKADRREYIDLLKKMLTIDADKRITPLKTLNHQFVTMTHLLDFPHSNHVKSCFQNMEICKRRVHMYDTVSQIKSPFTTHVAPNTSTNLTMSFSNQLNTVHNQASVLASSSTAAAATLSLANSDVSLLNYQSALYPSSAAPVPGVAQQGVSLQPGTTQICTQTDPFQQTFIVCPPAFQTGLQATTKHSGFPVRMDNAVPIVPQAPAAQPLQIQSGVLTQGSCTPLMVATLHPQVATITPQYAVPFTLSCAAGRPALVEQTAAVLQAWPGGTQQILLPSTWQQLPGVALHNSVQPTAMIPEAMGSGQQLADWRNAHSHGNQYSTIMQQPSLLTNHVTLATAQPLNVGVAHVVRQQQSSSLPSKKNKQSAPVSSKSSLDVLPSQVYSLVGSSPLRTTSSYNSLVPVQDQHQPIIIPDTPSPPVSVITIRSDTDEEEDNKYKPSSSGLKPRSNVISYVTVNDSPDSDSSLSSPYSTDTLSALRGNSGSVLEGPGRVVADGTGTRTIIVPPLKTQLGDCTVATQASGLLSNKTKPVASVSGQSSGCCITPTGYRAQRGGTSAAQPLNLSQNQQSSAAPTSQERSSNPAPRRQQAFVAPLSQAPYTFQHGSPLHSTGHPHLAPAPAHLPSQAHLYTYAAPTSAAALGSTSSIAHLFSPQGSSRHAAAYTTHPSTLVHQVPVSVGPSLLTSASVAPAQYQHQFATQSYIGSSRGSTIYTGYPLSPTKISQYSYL
Sequence of PIM1 (P11309 whole entry, species assumed): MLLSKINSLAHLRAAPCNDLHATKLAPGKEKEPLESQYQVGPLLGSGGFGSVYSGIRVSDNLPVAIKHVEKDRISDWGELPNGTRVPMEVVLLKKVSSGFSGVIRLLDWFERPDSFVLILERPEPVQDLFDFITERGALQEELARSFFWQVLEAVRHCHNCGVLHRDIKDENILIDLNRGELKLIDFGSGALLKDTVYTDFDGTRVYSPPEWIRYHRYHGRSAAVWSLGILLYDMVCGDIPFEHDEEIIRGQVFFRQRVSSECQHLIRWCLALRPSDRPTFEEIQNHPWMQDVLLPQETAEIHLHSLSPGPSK
Sequence of ITK (Q08881 whole entry, species assumed): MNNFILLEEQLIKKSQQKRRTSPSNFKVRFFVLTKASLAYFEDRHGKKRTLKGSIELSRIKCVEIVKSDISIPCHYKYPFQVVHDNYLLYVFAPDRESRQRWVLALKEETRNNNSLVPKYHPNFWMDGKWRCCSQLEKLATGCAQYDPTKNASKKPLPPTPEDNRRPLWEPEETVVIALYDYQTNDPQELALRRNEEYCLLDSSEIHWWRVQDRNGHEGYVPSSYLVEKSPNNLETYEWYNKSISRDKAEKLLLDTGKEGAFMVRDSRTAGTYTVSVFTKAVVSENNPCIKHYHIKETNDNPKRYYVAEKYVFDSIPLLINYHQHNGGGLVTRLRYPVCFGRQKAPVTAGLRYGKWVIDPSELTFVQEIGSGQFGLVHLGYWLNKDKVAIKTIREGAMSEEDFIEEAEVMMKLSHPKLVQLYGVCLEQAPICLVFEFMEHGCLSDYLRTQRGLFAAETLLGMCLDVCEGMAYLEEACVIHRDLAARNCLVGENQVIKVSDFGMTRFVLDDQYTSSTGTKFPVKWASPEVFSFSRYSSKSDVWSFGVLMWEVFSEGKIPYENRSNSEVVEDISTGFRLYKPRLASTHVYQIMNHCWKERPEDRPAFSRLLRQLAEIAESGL
Sequence of DCAMKL2 (Q8N568 whole entry, species assumed): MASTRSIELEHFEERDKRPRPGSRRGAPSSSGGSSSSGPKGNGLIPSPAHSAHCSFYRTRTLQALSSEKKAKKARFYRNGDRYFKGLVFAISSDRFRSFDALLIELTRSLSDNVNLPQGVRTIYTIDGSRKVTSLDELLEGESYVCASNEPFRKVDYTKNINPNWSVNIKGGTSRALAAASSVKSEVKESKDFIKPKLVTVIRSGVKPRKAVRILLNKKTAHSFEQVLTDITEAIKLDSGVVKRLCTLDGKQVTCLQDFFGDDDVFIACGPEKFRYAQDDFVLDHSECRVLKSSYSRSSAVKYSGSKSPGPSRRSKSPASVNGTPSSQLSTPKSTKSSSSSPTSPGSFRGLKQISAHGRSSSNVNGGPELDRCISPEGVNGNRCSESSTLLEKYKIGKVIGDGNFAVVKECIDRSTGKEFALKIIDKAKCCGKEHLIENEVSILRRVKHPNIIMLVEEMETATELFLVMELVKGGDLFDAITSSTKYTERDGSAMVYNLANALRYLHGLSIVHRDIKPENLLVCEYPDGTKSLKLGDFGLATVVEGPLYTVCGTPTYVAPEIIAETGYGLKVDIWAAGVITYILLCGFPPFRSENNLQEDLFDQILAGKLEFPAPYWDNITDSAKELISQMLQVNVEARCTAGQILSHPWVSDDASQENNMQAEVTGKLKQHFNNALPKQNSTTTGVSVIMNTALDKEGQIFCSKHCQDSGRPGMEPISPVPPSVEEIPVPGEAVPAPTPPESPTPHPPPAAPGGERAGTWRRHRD
Sequence of DYRK1B (Q9Y463 whole entry, species assumed): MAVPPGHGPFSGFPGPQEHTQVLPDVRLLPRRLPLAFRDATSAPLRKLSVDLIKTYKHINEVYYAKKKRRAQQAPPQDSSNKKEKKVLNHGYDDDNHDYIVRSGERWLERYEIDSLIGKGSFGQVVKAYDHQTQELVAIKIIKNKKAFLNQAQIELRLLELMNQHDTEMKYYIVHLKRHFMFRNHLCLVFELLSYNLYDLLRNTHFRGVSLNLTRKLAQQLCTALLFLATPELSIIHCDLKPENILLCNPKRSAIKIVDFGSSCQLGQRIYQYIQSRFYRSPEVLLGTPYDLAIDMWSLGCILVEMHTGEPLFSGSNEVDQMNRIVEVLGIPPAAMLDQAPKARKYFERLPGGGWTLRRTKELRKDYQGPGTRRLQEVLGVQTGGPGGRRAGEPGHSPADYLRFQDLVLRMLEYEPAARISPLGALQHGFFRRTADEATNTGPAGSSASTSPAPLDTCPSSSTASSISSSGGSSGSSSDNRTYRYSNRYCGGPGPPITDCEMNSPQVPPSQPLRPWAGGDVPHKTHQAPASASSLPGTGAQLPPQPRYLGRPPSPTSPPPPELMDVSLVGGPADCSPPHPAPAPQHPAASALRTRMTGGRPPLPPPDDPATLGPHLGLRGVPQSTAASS
Sequence of DDR1 (Q08345 other isoform, or with tags, fused parts or gaps isoform Q08345-2): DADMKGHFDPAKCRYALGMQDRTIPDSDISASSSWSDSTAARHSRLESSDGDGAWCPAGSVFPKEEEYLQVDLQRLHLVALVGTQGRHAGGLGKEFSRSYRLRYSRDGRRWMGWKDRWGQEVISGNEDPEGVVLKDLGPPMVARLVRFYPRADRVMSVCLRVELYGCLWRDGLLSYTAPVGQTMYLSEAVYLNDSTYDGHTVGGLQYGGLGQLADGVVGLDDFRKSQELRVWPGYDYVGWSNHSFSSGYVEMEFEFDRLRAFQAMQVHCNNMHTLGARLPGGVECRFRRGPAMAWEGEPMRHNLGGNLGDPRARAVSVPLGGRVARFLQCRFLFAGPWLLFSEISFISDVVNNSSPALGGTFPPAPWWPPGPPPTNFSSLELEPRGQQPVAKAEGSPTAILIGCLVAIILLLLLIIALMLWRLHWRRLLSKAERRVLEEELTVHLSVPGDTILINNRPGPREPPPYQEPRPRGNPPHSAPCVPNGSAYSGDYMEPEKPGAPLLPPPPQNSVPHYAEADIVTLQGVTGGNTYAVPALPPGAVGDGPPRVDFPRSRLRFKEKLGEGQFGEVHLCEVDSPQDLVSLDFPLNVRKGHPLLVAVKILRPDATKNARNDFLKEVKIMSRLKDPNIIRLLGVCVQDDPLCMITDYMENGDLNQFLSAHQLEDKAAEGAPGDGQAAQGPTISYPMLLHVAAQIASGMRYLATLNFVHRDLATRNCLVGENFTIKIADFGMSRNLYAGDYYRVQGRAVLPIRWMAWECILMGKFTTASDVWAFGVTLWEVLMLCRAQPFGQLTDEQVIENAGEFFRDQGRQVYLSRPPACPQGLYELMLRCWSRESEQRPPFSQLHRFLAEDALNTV

Cc1ccc(C(=O)Nc2ccccn2)cc1C#Cc1cnc2cc(C3=CCCCC3)cnn12 [Compound C1, 3-{2-[7-(cyclohex-1-en-1-yl)imidazo[1,2-b]pyridazin-3-yl]ethynyl}-4-methyl-N-(pyridin-2-yl)benzamide]
pIC50 (DDR1): 7.64 | inhibition at 1 µM (DCAMKL2; [2]): -8.91% | inhibition at 1 µM (DCAMKL2; [3]): -8.39% | inhibition at 1 µM (DCAMKL2; [4]): -8.65% | inhibition at 1 µM (DYRK1B; [2]): 4.14% | inhibition at 1 µM (DYRK1B; [3]): 9.03% | inhibition at 1 µM (DYRK1B; [4]): 6.58% | inhibition at 1 µM (HIPK1; [2]): 6.91% | inhibition at 1 µM (HIPK1; [3]): 4.17% | inhibition at 1 µM (HIPK1; [4]): 5.54% | inhibition at 1 µM (ITK; [2]): -3.82% | inhibition at 1 µM (ITK; [3]): -19.2% | inhibition at 1 µM (ITK; [4]): -11.5% | inhibition at 1 µM (PIM1; [2]): -3.17% | inhibition at 1 µM (PIM1; [3]): -4.27% | inhibition at 1 µM (PIM1; [4]): -3.72% | Inhibition of DDR1-mediated lung fibrosis at the cellular level (in words) [1]: can inhibit DDR1-mediated lung fibrosis at the cellular level | inhibition at 0.00244 µM ([1]; Homo sapiens, MRC5, hTGFβ1 2.5 ng/ml, compound C1 2.44 nM): 103% | inhibition at 0.00977 µM ([1]; Homo sapiens, MRC5, hTGFβ1 2.5 ng/ml, compound C1 9.77 nM): 103% | inhibition at 0.03906 µM ([1]; Homo sapiens, MRC5, hTGFβ1 2.5 ng/ml, compound C1 39.06 nM): 103% | inhibition at 0.15625 µM ([1]; Homo sapiens, MRC5, hTGFβ1 2.5 ng/ml, compound C1 156.25 nM): 109% | inhibition at 0.625 µM ([1]; Homo sapiens, MRC5, hTGFβ1 2.5 ng/ml, compound C1 625.00 nM): 48.2% | inhibition at 2.5 µM ([1]; Homo sapiens, MRC5, hTGFβ1 2.5 ng/ml, compound C1 2500.00 nM): 11.7% | Ratio of α-SMA to GAPDH ([1]; compound C1 2.44 nM): 1.1612 | α-SMA signal ([1]; compound C1 2.44 nM): 1390356 | Ratio of α-SMA to GAPDH ([1]; compound C1 9.77 nM): 1.1646 | α-SMA signal ([1]; compound C1 9.77 nM): 1386165 | Ratio of α-SMA to GAPDH ([1]; compound C1 39.06 nM): 1.1681 | α-SMA signal ([1]; compound C1 39.06 nM): 1304919 | Ratio of α-SMA to GAPDH ([1]; compound C1 156.25 nM): 1.2342 | α-SMA signal ([1]; compound C1 156.25 nM): 1353660 | Ratio of α-SMA to GAPDH ([1]; compound C1 625.00 nM): 0.5459 | α-SMA signal ([1]; compound C1 625.00 nM): 629772 | Ratio of α-SMA to GAPDH ([1]; compound C1 2500.00 nM): 0.1330 | α-SMA signal ([1]; compound C1 2500.00 nM): 4686
